Test [1] addresses Neuropeptides B/W receptor type 1 (Homo sapiens, UniProt P48145). Put plainly: human NPBW1 receptor blockade, IC50 – cell-based, fluorescence, dose response, set 5, late-stage follow-up (AID 588566). It is filed as functional.
Test [2] addresses Melanin-concentrating hormone receptor 1 (Homo sapiens, UniProt Q99705). The test is described as follows: Late-stage fluorescence-based counterscreen for antagonists of the G-protein coupled receptor 7 (GPR7): cell-based dose response assay to identify antagonists of the melanin-concentrating hormone receptor 1 (MCHR1) Set 5. It is filed as functional. In general terms: A counterscreen serves to expose hits that act by an unwanted route or on another target.

Test [3] has as its target Casein kinase I isoform delta (Homo sapiens, UniProt P48730). The test is classed as functional.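 Also: measured as one member (CSNK1D) of a kinome panel.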
Test [4] deals with T1, Hexokinase-1 (Homo sapiens, UniProt P19367).
T1 sequence (P19367 whole entry): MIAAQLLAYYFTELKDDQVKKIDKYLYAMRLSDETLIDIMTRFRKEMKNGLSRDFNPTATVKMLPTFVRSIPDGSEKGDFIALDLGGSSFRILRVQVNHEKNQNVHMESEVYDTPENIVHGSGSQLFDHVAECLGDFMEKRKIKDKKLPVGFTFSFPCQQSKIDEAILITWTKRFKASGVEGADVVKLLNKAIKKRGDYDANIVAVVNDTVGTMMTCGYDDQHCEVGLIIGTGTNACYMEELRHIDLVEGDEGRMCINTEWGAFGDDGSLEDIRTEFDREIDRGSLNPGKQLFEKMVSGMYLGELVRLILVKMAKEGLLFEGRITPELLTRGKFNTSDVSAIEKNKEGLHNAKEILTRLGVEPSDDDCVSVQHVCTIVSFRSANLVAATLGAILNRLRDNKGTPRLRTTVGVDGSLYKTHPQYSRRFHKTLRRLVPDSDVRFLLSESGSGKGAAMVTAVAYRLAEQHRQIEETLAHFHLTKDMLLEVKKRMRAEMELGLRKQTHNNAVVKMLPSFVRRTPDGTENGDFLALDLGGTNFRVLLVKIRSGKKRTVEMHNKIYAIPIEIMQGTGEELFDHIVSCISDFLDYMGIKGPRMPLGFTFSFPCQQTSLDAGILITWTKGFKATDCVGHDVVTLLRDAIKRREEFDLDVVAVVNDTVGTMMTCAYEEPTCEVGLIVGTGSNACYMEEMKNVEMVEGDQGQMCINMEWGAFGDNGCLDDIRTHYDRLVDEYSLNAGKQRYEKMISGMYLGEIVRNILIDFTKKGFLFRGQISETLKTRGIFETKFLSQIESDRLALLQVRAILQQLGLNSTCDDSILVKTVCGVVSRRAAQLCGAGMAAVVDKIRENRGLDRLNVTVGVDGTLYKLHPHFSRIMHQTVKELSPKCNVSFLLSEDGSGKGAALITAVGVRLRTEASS
Put plainly: hexokinase 1 activity inhibitors, potency – biochemical, set 2, resazurin fluorescence coupled readout, selectivity assay for HKDC1 inhibitor project, SAR follow-up (AID 588356). It is filed as functional. In general terms: Resazurin is reduced to fluorescent resorufin, in cell work by metabolically active cells.

For test [5], the target named is T2, Hexokinase HKDC1 (Homo sapiens, UniProt Q2TB90).
T2 sequence (Q2TB90 whole entry): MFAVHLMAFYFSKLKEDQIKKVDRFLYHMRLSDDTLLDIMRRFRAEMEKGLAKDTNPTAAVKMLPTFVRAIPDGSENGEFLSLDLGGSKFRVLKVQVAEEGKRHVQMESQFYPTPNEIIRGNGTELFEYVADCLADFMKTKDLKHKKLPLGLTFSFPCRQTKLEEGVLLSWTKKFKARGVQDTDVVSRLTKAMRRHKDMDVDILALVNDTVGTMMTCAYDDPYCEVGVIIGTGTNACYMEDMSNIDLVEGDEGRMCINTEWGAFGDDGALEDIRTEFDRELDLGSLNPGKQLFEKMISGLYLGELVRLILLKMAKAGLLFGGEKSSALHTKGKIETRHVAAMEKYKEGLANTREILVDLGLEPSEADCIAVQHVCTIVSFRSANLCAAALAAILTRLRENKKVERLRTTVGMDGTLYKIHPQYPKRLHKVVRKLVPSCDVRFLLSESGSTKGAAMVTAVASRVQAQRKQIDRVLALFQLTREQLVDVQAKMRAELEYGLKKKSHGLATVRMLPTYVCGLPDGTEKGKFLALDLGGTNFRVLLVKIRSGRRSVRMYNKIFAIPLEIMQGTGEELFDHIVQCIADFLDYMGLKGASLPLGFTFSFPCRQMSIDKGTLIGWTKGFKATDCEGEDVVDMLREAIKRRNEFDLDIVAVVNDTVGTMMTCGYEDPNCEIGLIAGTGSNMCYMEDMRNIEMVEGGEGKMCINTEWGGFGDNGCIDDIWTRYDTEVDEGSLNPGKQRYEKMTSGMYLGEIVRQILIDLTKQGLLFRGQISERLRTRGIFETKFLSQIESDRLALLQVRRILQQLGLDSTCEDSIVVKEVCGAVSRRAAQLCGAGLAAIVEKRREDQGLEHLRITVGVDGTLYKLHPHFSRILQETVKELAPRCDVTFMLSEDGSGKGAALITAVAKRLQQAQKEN
Put plainly: analog inhibition of human HKDC1 activity – biochemical, set 2, SAR follow-up (AID 588355). The test is classed as functional.

The target in test [6] is T3, Nuclear receptor subfamily 0 group B member 1 (Homo sapiens, UniProt P51843).
T3 sequence (P51843 whole entry): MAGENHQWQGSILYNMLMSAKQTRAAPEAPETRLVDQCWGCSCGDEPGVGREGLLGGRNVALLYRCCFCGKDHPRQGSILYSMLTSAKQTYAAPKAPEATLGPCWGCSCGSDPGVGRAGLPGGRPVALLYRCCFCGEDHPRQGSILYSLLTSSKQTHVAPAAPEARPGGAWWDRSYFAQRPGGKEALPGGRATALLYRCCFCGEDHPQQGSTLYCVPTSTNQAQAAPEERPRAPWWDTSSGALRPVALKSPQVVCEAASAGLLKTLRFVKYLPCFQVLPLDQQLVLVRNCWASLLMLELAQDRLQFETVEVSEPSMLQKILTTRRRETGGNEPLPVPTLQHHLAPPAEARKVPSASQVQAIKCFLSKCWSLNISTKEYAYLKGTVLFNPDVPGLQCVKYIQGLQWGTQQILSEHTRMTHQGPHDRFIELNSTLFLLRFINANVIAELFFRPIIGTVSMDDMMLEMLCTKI
Put plainly: Luminescence-based cell-based high throughput dose response assay for inhibitors of the orphan nuclear receptor subfamily 0, group B, member 1 (DAX1; NR0B1). [Related pubchem assays (depositor defined):AID504766, AID504790]. The test is classed as functional.

Test [7] concerns HEK293. Put plainly: cells. The test is classed as functional, cell-based. The settings on record: Homo sapiens.
In test [8] the target is Beta-2 adrenergic receptor (Homo sapiens, UniProt P07550). Put plainly: ADRB2 activation measured by internalization – cell-based, FAP fluorogen, flow cytometry, cherry pick 1, dose response (AID 588763). It is filed as functional.
Chain of Beta-2 adrenergic receptor (P07550 whole entry): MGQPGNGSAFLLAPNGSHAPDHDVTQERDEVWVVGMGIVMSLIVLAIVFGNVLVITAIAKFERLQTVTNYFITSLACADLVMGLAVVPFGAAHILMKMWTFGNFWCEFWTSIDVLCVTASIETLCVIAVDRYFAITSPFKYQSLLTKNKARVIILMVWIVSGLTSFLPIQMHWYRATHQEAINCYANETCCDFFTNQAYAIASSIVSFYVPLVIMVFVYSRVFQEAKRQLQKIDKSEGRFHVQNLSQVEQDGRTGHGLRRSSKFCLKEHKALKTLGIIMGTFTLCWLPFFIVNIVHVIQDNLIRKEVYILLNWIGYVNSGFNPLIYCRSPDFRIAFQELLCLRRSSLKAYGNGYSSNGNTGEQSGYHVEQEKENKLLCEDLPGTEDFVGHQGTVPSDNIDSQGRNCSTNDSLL
In test [9] the target is T4, Apoptotic protease-activating factor 1 (Homo sapiens, UniProt O14727).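 Also: caspase-3 cleavage of fluorogenic Rh110 DEVD substrate downstream of apoptosome activation.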
T4 sequence (O14727 whole entry): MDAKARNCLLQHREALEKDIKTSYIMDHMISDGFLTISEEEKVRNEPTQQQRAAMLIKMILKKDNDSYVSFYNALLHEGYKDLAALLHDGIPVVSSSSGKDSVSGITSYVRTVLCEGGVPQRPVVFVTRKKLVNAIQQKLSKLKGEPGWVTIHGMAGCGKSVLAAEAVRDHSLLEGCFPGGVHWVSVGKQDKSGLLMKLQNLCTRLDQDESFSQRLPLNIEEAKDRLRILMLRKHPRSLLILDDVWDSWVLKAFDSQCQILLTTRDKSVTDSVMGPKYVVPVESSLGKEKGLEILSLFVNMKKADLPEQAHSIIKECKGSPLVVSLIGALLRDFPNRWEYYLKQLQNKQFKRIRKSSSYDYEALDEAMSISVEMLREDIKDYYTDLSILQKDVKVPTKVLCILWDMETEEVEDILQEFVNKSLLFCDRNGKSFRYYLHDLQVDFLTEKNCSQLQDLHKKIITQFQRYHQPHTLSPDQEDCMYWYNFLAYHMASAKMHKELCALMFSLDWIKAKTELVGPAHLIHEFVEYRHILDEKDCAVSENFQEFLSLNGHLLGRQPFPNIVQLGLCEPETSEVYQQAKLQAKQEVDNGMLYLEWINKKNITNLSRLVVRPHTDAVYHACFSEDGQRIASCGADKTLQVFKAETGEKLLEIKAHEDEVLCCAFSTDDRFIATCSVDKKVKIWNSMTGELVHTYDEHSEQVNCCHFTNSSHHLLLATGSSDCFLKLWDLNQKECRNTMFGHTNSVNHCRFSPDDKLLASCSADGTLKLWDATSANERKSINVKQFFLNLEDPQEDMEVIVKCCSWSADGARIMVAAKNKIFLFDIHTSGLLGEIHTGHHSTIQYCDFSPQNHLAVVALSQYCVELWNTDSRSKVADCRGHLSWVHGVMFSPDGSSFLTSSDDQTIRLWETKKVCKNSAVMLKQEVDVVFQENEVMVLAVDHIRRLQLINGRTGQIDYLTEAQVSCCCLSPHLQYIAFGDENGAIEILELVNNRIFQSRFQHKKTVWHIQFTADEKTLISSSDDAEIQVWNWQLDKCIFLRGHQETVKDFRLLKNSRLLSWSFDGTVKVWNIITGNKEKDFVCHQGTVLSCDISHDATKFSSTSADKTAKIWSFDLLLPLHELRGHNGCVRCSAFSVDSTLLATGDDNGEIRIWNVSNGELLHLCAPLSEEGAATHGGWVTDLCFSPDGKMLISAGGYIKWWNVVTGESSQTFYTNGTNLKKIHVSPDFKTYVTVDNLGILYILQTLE
Put plainly: SAR analysis of small molecule Activators of Apaf-1 in a Fluorescent assay. The test is classed as functional. The settings on record: read-out: EC50_Mean.

In test [10] the target is Phospholipase A2 (Homo sapiens, UniProt P04054). The test is classed as functional.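 Also: confirmatory dose-response counterscreen on phospholipase A2, testing hits that came from an ultra-high-throughput screen for ATG4B inhibitors.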
Chain of Phospholipase A2 (P04054 whole entry): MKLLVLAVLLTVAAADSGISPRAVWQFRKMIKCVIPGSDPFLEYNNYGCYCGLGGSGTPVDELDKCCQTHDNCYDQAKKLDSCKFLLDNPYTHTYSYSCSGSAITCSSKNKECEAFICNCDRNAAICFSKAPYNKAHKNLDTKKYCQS
Test [11] concerns the target Cysteine protease ATG4B (Homo sapiens, UniProt Q9Y4P1). It is filed as functional.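 Also: Fluorescence-based dose-response confirmation assay measuring inhibition of ATG4B activity.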
For test [12], the system named is Vero. The test is described as follows: viability of Vero cells under compound – cytotoxicity control for flavivirus capping enzyme inhibitors (AID 588742). The test is classed as functional. To be noted: Chlorocebus sabaeus.
The target in test [13] is Mitogen-activated protein kinase 13 (Homo sapiens, UniProt O15264). It is filed as functional.
Chain of Mitogen-activated protein kinase 13 (O15264 whole entry): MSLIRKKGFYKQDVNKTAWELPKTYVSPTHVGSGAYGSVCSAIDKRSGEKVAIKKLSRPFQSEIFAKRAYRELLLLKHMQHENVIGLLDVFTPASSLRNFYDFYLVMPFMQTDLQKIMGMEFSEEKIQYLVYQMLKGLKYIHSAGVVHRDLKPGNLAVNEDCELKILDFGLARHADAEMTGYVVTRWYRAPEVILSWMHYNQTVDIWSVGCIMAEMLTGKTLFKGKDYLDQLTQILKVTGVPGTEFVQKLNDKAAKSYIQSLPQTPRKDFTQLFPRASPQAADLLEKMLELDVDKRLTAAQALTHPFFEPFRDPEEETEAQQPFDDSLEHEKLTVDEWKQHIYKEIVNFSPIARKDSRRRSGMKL
Test [14] addresses Voltage-gated inwardly rectifying potassium channel KCNH2 (Homo sapiens, UniProt Q12809). To be noted: Potency.
The nature of test [15]: viability of HCT116 lacking mutant beta-catenin – cell-based, human colon tumor, dose response (AID 1045).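 Also: HCT116 colon tumor cells with beta catenin knocked out; cells exposed to compound for 60 hours.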 It is filed as functional.
Test [16] is described as follows: viability of PTEN-deleted HCT116 cells – cell-based, HCT116 PTEN knockout, dose response (AID 1047).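 Also: HCT116 colon tumor cells with PTEN knocked out; cells exposed to compound for 60 hours before readout; potency for loss of cell viability measured by luminescence.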 The test is classed as functional.

Results on 13 compounds are retold here after ChEMBL document CHEMBL1201862, “PubChem BioAssay data set” (2004).

Activity calls are given as the source filed them. Bounds are passed on as bounds.
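For AC50 in this document: confirmatory quantitative high-throughput screen measuring inhibition of hERG channel activity.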

Chain of Neuropeptides B/W receptor type 1 (P48145 whole entry): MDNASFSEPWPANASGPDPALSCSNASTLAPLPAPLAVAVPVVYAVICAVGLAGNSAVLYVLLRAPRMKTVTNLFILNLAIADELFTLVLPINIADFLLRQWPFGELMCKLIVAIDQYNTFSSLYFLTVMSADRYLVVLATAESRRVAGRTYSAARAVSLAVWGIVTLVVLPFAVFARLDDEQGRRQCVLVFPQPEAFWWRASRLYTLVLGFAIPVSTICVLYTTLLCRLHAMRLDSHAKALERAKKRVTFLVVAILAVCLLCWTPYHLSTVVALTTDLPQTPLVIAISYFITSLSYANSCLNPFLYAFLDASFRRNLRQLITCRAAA
Chain of Melanin-concentrating hormone receptor 1 (Q99705 whole entry): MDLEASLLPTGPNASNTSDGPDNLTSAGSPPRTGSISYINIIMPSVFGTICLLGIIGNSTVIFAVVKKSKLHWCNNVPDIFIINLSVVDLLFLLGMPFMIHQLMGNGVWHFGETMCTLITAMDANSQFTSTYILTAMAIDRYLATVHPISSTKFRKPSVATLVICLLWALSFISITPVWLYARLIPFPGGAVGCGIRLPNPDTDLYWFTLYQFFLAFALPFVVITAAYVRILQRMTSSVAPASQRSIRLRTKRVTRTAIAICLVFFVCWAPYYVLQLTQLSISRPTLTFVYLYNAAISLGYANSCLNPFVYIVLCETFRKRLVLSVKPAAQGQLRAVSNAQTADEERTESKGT
Chain of Cysteine protease ATG4B (Q9Y4P1 whole entry): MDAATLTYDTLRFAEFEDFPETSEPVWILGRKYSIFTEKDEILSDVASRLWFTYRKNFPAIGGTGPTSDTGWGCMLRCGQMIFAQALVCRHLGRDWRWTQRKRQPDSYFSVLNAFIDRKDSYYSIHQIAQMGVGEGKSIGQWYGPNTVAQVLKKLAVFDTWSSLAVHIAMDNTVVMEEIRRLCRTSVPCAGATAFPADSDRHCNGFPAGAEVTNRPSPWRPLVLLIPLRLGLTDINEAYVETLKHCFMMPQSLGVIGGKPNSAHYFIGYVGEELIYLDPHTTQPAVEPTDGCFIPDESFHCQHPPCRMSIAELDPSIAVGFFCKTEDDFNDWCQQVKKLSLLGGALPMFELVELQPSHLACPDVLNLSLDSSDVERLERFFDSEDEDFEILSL
Chain of Voltage-gated inwardly rectifying potassium channel KCNH2 (Q12809 whole entry): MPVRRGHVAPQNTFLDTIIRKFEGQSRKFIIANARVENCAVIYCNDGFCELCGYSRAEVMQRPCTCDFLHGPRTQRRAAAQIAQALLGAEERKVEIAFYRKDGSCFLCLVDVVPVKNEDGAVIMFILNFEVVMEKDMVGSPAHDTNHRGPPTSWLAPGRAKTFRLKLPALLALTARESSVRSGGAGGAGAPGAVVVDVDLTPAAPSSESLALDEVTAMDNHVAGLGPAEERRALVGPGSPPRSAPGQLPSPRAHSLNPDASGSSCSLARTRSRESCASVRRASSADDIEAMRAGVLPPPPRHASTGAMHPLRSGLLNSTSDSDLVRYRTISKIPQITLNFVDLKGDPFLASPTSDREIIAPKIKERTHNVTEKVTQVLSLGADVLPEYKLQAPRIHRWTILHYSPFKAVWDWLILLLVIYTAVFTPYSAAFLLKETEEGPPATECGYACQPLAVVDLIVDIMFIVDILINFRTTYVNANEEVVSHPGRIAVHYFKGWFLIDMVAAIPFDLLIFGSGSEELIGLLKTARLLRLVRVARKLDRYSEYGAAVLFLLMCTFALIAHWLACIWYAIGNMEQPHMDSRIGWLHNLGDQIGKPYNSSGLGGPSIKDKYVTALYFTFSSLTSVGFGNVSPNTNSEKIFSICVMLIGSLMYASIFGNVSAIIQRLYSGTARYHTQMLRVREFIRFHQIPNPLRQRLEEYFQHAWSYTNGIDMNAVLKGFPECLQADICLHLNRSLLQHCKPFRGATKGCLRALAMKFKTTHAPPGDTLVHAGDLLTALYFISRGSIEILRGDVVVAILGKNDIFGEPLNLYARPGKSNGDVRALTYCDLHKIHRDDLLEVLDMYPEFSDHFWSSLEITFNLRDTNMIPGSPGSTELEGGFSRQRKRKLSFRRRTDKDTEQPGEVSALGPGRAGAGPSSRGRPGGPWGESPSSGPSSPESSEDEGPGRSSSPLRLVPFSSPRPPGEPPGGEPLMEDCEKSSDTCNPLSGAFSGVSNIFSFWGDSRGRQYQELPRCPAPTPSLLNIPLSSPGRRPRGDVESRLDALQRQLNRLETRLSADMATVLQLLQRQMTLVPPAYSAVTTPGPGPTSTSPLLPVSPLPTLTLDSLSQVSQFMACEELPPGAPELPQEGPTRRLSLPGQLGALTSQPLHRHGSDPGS
Chain of Casein kinase I isoform delta (P48730 whole entry, canonical isoform): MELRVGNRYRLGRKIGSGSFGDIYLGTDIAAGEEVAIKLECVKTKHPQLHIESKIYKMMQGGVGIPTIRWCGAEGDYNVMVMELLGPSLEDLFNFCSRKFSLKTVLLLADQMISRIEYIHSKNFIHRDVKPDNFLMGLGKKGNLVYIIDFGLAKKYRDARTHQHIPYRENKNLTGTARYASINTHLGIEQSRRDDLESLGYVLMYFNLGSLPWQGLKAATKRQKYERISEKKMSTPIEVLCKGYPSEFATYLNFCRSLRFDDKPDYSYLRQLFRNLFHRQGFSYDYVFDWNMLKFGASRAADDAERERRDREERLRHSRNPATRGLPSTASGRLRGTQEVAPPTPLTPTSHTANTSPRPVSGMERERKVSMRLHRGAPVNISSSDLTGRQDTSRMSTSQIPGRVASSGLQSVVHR

In general, IC50 refers to the midpoint of a concentration-inhibition curve. For the compound `O=C(C1CCCCN1C1c2ccccc2-c2ccccc21)N1CCN(c2ccc([N+](=O)[O-])cc2)CC1` (stereo not given), the IC50 in [1] and in test [2] was > 20 µM (inactive) throughout.
For orientation: Ki means the equilibrium dissociation constant of an inhibitor or competing ligand from its target. In the case of `CC1(N2CCC(c3ccccc3)CC2)CCN(C(=O)CNc2ncnc3cc(Cl)c(Cl)cc23)C1` (stereo not given), the Ki in test [3] was 3.16 µM (active).
Turning to `CC(=O)NC1C(=O)N(Cc2ccccc2)c2ccc(Br)cc21` (stereo not given), the IC50 in [4] and in [5] was > 80 µM (inactive) each time.
In the case of `CC(C)(C)c1ccc(-c2noc(-c3ccno3)n2)cc1`, the IC50 in test [6] and in [7] was > 67.5 µM (inactive) in each case.
On to `CCOC(=O)c1nn(-c2ccc(C(C)C)cc2)c(=O)c(Oc2ccc(OC)cc2)c1Cl`, for which the IC50 in test [1] and in [2] was > 20 µM (inactive) in each case.
Consider `O=C(CN1C(=O)CCC1=O)Nc1nc(-c2nc3ccccc3s2)cs1`, for which the EC50 in [8] is 0.0444 µM (active).
Regarding `COc1ccc(C(=O)NC(CCc2ccccc2)CC(=O)O)cc1` (stereo not given), the EC50 in [9] is > 100 µM (inactive).
With `Cc1ccc(-c2cc(C(=O)N3CCc4ccccc4C3)no2)cc1`, the values for the concentration for half-maximal inhibition (IC50) in test [10] and in [11] were 8.83 µM (active) and 13.3 µM (active), respectively.
For the compound `CN(Cc1ccccc1F)c1nc(-c2cccnc2)nc2ccccc12`, the EC50 in test [8] was 6.08 µM (active).
For orientation: CC50 means the concentration that lowers cell viability or growth by half. For the compound `Cc1nc2ncccn2c1-c1csc(NCc2ccco2)n1`, the cytotoxic concentration (CC50) in test [12] is > 40 µM (active).
Regarding `N#Cc1ncc2nc1OCCCCCOc1cc(OCCCO)c(Cl)cc1NC(=O)N2`, the Ki in [13] was > 7.94 µM (inactive).
For orientation: AC50 means the midpoint of the concentration-response curve, whichever way the signal moves. As for `CCOP(=S)(OCC)Oc1nc(Cl)c(Cl)cc1Cl` [CHLORPYRIFOS], the AC50 in [14] was 50.1 µM (inconclusive).
Turning to `Cc1[nH]n(-c2ccccc2)c(=O)c1N=Nc1nccs1`, the CC50 in [12] was > 40 µM (active). For the same compound, the EC50 in [15] is 4.29 µM (active); in [16] it was 5.42 µM (active).
